Laboratory results reported in article PMC10258794, “To Fold or Not to Fold: Diastereomeric Optimization of an α-Helical Antimicrobial Peptide” (Journal of Medicinal Chemistry, 2023).
Values after ≈ are worked out from the molar mass of the structure shown. Read-outs that look alike come from different tables or passages of the source.

How the values were obtained:
[1] = EYPC vesicle leakage assay; format: biochemical; conditions: 10 μg/mL of compound; 10 mM TRIS, 107 mM NaCl, pH 7.4
Description: 5(6)-carboxyfluorescein (CF) was purchased from Sigma. EYPC, EYPG, and a Mini-Extruder were purchased from Avanti Polar Lipids. Egg PC or Egg PG thin lipid layers were prepared by evaporating a solution of 100 mg of EYPC or EYPG in 4 mL of MeOH/CHCl3 (1:1) on a rotary evaporator at room temperature and then dried in vacuo overnight. […] Extravesicular components were removed by gel filtration (Sephadex G-50) with 10 mM TRIS, 107 mM NaCl, pH 7.4 buffer. Final conditions: ∼2.5 mM PC or PG; inside: 50 mM CF, 10 mM TRIS, 10 mM NaCl, pH 7.4 buffer; outside: 10 mM TRIS, 107 mM NaCl, pH 7.4. […] The CF efflux was monitored at λem 517 nm (λex 492 nm) as a function of time after addition of the desired volume of peptide from 2 mg/mL stock in mQ water at t = 45 s, 10 and 50 μg/mL were monitored for both EYPC and EYPG. […] Fluorescence intensities were then normalized to the maximal emission intensity using I(t) = (It – I0)/(I∞ – I0) where I0 = It at peptide addition, I∞ = It at saturation of lysis.

A. baumannii ATCC19606 = test system: A. baumannii ATCC19606
Description: (§1) Antimicrobial activity was determined for all peptides on E. coli W3110, P. aeruginosa PAO1, A. baumannii ATCC19606, K. pneumoniae NCTC418, and methicillin-resistant S. aureus COL and for selected peptides on P. aeruginosa PA14 and the polymyxin B-resistant derivatives PA14 4.13, PA14 4.18, and PA14 2P4 as well as the clinical isolates ZEM-1A and ZEM9A, K. pneumoniae OXA-48, Enterobacter cloacae, Stenotrophomonas maltophilia, B. cenocepacia, and Staphylococus epidermis. To determine the MIC, the broth microdilution method was used.[75] A single bacterial colony was grown in LB medium overnight at 37 °C and 180 rpm shaking. The compounds were prepared as stock solutions of 2 mg/mL in sterilized milliQ deionized water, added to the first well of 96-well sterile, polypropylene round-bottom microtiter plates (TPP, untreated, Corning Incorporated, Kennebunk, USA), and diluted serially by 1/2. […] The bacterial inoculum was prepared by measuring the absorbance of the overnight culture, which was diluted to concentration of the bacteria was quantified by measuring absorbance at 600 nm and diluted to an OD600 of 0.022 in MH medium pH 7.4 (Sigma-Aldrich, Buchs, Switzerland). The sample solutions (150 μL) were mixed with 4 μL of diluted bacterial suspension with a final inoculation of about 5 × 10^5 CFU. For each test, two columns of the plate were kept for sterility control (MH medium only) and growth control (MH medium with bacterial inoculum, no compound). […] The plates were incubated at 37 °C for 16–20 h under static conditions. 15 μL of 3-(4,5-dimethylthiazol-2-yl)-2,5-diphenyltetrazolium bromide (MTT)[76] (1 mg/mL in sterilized milliQ deionized water) was added to each well, and the plates were incubated at room temperature until MTT staining was completed. The MIC was defined as the lowest concentration of the dendrimer that inhibits the visible growth of the tested bacteria (yellow) with the unaided eye.

P. aeruginosa PAO1 = test system: P. aeruginosa PAO1
Description: as §1

E. coli W3110 = test system: E. coli W3110
Description: as §1

S. aureus COL MRSA = test system: S. aureus COL MRSA
Description: as §1

K. pneumoniae NCTC418 = test system: K. pneumoniae NCTC418
Description: as §1

human red blood cells = assay: Hemolysis assay (MHC)
Description: To determine the MHC stock solutions, 8 mg/mL peptide in PBS (pH 7.4) was prepared, and 50 μL was diluted serially by l/2 in 50 μL of PBS (pH 7.4) in a 96-well plate (Costar or Nunc, polystyrene, untreated). […] Plasma was discarded, and the pellet was re-suspended in a 15 mL Falcon tube in 5 mL of PBS. The washing was repeated three times, and the remaining pellet was re-suspended in 10 mL of PBS. The hRBC suspension (50 μL) was added to each well, and the plate was incubated at room temperature for 4 h. MHC end points were determined by visual determination of the wells after the incubation period. Controls on each plate included a blank medium control (50 μL PBS + 50 μL of hRBCs suspension) and a hemolytic activity control (mQ-deionized water 50 μL + 50 μL hRBC suspension).

P. aeruginosa ZEM-1A = assay: microbe, parasite or virus in culture; conditions: ZEM-1A
Description: as §1

[2] = MH broth pH 7.4, 16–20 h, 37 °C
[3] = supplementary CSV, ranges of Table 1 given as one number

For `CC(C)C[C@H](NC(=O)[C@H](CC(C)C)NC(=O)[C@H](CC(C)C)NC(=O)[C@@H](CCCCN)NC(=O)[C@@H](CC(C)C)NC(=O)[C@@H](CC(C)C)NC(=O)[C@@H](CCCCN)NC(=O)[C@@H](CC(C)C)NC(=O)[C@H](CC(C)C)NC(=O)[C@H](CCCCN)NC(=O)[C@@H](N)CCCCN)C(N)=O` [HP29, KKLlkllkLLL], the “EYPC vesicle leakage (%)” value [1] was 6%, the “MIC A. baumannii ATCC19606” value (A. baumannii ATCC19606; [2]) was 8 µg/mL (≈ 6.05 µM) and the “MIC A. baumannii ATCC19606” value (A. baumannii ATCC19606; [3]) was 8 µg/mL (≈ 6.05 µM). The “MIC P. aeruginosa PAO1” value (P. aeruginosa PAO1; [2]) was 4 µg/mL (≈ 3.03 µM), the “MIC P. aeruginosa PAO1” value (P. aeruginosa PAO1; [3]) was 4 µg/mL (≈ 3.03 µM) and the “MIC E. coli W3110” value (E. coli W3110; [2]) was 2 µg/mL (≈ 1.51 µM). The “MIC S. aureus COL MRSA” value (S. aureus COL MRSA; [2]) was 32 µg/mL (≈ 24.2 µM), the “MIC S. aureus COL” value (S. aureus COL MRSA; [3]) was 32 µg/mL (≈ 24.2 µM) and the “MIC K. pneumoniae NCTC418” value (K. pneumoniae NCTC418; [2]) was 64 µg/mL (≈ 48.4 µM). The “MIC K. pneumoniae NCTC418” value (K. pneumoniae NCTC418; [3]) was 64 µg/mL (≈ 48.4 µM).

For H-RRLLRLLRLLL-NH2 [HP32], the MHC (human red blood cells; human red blood cells in PBS pH 7.4, 4 h, room temperature) was 15.6 µg/mL and the “MHC” value (human red blood cells; supplementary CSV, human red blood cells) was 16 µg/mL.

With `CC(C)C[C@H](NC(=O)[C@H](CC(C)C)NC(=O)[C@H](CC(C)C)NC(=O)[C@H](CCCCN)NC(=O)[C@H](CC(C)C)NC(=O)[C@H](CC(C)C)NC(=O)[C@H](CCCCN)NC(=O)[C@@H](CC(C)C)NC(=O)[C@@H](CC(C)C)NC(=O)[C@@H](CCCCN)NC(=O)[C@@H](N)CCCCN)C(N)=O` [HP8, KkllKLLKLLL] the “MIC P. aeruginosa ZEM-1A” value (P. aeruginosa ZEM-1A) was 2 µg/mL (≈ 1.51 µM).

In the case of `CC(C)C[C@H](NC(=O)[C@H](CCCCN)NC(=O)[C@H](N)CCCCN)C(=O)N[C@@H](CC(C)C)C(=O)N[C@H](CCCCN)C(=O)N[C@H](CC(C)C)C(=O)N[C@H](CC(C)C)C(=O)N[C@@H](CCCCN)C(=O)N[C@@H](CC(C)C)C(=O)N[C@@H](CC(C)C)C(=O)N[C@H](CC(C)C)C(N)=O` [HP28, kKLLkllKLLl], the “EYPC vesicle leakage (%)” value [1] was 3%, the “MIC P. aeruginosa PAO1” value (P. aeruginosa PAO1; [2]) was 4 µg/mL (≈ 3.03 µM) and the “MIC P. aeruginosa PAO1” value (P. aeruginosa PAO1; [3]) was 4 µg/mL (≈ 3.03 µM). For the same compound, the “MIC E. coli W3110” value (E. coli W3110; [2]) was 2 to 4 µg/mL, the “MIC E. coli W3110” value (E. coli W3110; [3]) was 3 µg/mL (≈ 2.27 µM) and the “MIC S. aureus COL MRSA” value (S. aureus COL MRSA; [2]) was 32 µg/mL (≈ 24.2 µM). The “MIC S. aureus COL” value (S. aureus COL MRSA; [3]) was 32 µg/mL (≈ 24.2 µM) and the “MIC K. pneumoniae NCTC418” value (K. pneumoniae NCTC418; [2]) was over 64 µg/mL.

With `CC(C)C[C@H](NC(=O)[C@H](CC(C)C)NC(=O)[C@@H](CCCCN)NC(=O)[C@H](CC(C)C)NC(=O)[C@H](CC(C)C)NC(=O)[C@@H](CCCCN)NC(=O)[C@H](N)CCCCN)C(=O)N[C@@H](CCCCN)C(=O)N[C@@H](CC(C)C)C(=O)N[C@H](CC(C)C)C(=O)N[C@H](CC(C)C)C(N)=O` [HP26, kkLLkLLKLll] the “EYPC vesicle leakage (%)” value [1] was 6%, the “MIC A. baumannii ATCC19606” value (A. baumannii ATCC19606; [2]) was 16 µg/mL (≈ 12.1 µM) and the “MIC A. baumannii ATCC19606” value (A. baumannii ATCC19606; [3]) was 16 µg/mL (≈ 12.1 µM). For the same compound, the “MIC P. aeruginosa PAO1” value (P. aeruginosa PAO1; [2]) was 4 µg/mL (≈ 3.03 µM), the “MIC P. aeruginosa PAO1” value (P. aeruginosa PAO1; [3]) was 4 µg/mL (≈ 3.03 µM) and the “MIC E. coli W3110” value (E. coli W3110; [2]) was 4 µg/mL (≈ 3.03 µM). For the same compound, the “MIC S. aureus COL MRSA” value (S. aureus COL MRSA; [2]) was 32 µg/mL (≈ 24.2 µM), the “MIC S. aureus COL” value (S. aureus COL MRSA; [3]) was 32 µg/mL (≈ 24.2 µM) and the “MIC K. pneumoniae NCTC418” value (K. pneumoniae NCTC418; [2]) was over 64 µg/mL.

In the case of H-RRIIRIIRIII-NH2 [HP36], the “MHC” value (human red blood cells) was 63 µg/mL, the MHC (human red blood cells; pH 7.4) was 62.5 µg/mL and the “MIC A. baumannii ATCC19606” value (A. baumannii ATCC19606; ATCC19606) was 12 µg/mL. The “MIC A. baumannii ATCC19606” value (A. baumannii ATCC19606; ATCC19606, pH 7.4) was 8 to 16 µg/mL, the “MIC S. aureus COL” value (S. aureus COL MRSA; COL) was 24 µg/mL and the “MIC S. aureus COL MRSA” value (S. aureus COL MRSA; COL, pH 7.4) was 16 to 32 µg/mL.
